Data on one molecule can be found in patent US20260174780A1, “BISMUTH-THIOL COMPOSITIONS AND METHODS FOR TREATING INFLAMMATORY DISEASES” (Microbion Corporation, priority 2022, published 2026).

“Also recorded” adds a separate entry of the source.

The test system of one assay is NLRP3. Briefly: qPCR of NLRP3 in A549 cells. The format is cell-based, human. Conditions: 0.5-4 μg/mL, 24 hours, compared to untreated cells. The protocol: (§1) Protocol: A549 cells were grown in tissue culture flasks and a 24-well plate was seeded with 2×10^5 cells/well and incubated at 37° C. and 5% CO2 for 48 hours. Select wells were treated with either 4 μg/mL, 2 μg/mL, 1 μg/mL, or 0.5 μg/mL BisEDT or left untreated as a control and incubated at 37° C. and 5% CO2 for 24 hours. Cell culture supernatant was collected from each well and stored at −20° C. until further analysis. Cells were collected for RNA isolation using Qiagen RNeasy kit using manufacturer's instructions. Briefly, genomic DNA was degraded with DNase (Roche) and samples were incubated at 37° C. for 1 hour followed by 3 μL DNase inactivation reagent (Invitrogen) incubated at 37° C. for 2 minutes. Samples were centrifuged at maximum speed for 5 minutes to remove the inactivation reagent. RNA concentration and quality was evaluated using a Nanodrop. RNA samples were utilized to generate cDNA using cDNA synthesis kit (Bio-Rad). qPCR for NLRP3 and actin (housekeeping gene) was conducted using SYBR green kit (Bio-Rad) along with standard.
(Real-time PCR tracks product formation cycle by cycle.)

The test system of assay [1] is AIM2 inflammasome. Briefly: RT-qPCR of AIM2 inflammasome expression in THP-1 macrophages, uninfected or infected. The format is cell-based. Here is the method:
THP-1 macrophages were differentiated with 50 ng/ml PMA for 24 hours, followed by 24 hours in media prior to infection. Differentiated THP-1 macrophages were infected with M. avium or M. abscessus for 1 hour with an MOI of 5. Infected cells were washed twice, followed by 1 hour of antibiotic treatment with 200 μg/ml of amikacin to remove extracellular bacteria. After the antibiotic treatment step, cells were washed once more and BisEDT (BIZ) was added at the indicated concentrations. The treatments (see Table 2) included: (1) uninfected, (2) uninfected+range of BisEDT, (3) untreated+infected with M. avium, (4) M. avium infected+BIZ, (5) untreated+M. abscessus, and (6) M. abscessus infected+BIZ. The time points for sample preparation were 48 hours post infection. CFUs were determined as described above and RNA was collected from similar experiments.
THP-1 RNA from the cells was isolated using the Rneasy mini kit (Qiagen), followed by treatment with Dnase 1 recombinant (Roche Diagnostics) for 1 hour at 37° C. to remove contaminating genomic DNA. The DNase was inactivated with Turbo DNase-inactivation reagent (Turbo DNA-free kit, Thermo Fisher Scientific) for 2 min at 37° C. Inactivation reagent was removed via centrifugation for 1 min at 10,000×g, and RNA transferred to new collection tubes. RNA samples were stored at […] for future processing. cDNA was transcribed from host RNA using the iScript cDNA synthesis kit (Bio-Rad). The quality of cDNA was tested by PCR with Gold 360 master mix using the manufacturer's specifications (Thermo Fisher Scientific). The RT-qPCR reaction was performed using iQ SYBR Green Supermix (Bio-Rad) and an iCycler (CFX Connect Real-Time Systems, Bio-Rad) as previously described (1). Standard curves for each gene were run in each reaction and used to calculate absolute values of mRNA. Gene expression data are presented as relative expression to beta-actin. Primers (Table 3) were designed in Primer3 using sequences from GenBank (National Center for Biotechnology Information).

Assay [2] has as its system AIM2 inflammasome. Briefly: qPCR of AIM2 in HUVEC cells. Conditions: HUVEC cells, 0.5, 1, 2 or 4 μg/mL, 24 hours, compared to untreated cells. The format is cell-based, human. Here is the method: as §1, with “HUVEC” for “A549”, “further ELISA” for “further”, “analysis. On the day of the ELISA assays to determine the expression of each cytokine, cell culture supernatant was thawed, and the assays performed following the manufacturer's instructions.” for “analysis.”, “AIM2” for “NLRP3”

For another assay, the system named is HUVEC cells. In words: Cytokine ELISA in HUVEC cells. It counts as cell-based, human. Conditions: 0.5, 1, 2 or 4 μg/mL, 24 hours, compared to untreated cells. Here is the method:
as §1, with “HUVEC” for “A549”, “further ELISA” for “further”, “analysis. On the day of the ELISA assays to determine the expression of each cytokine, cell culture supernatant was thawed, and the assays performed following the manufacturer's instructions.” for “analysis.”, “AIM2” for “NLRP3”
(In general: ELISA stands for enzyme-linked immunosorbent assay.)

Another assay concerns BEAS-2B cells. Briefly: Cytokine ELISA in BEAS-2B cells. Particulars: 0.5, 1, 2 or 4 μg/mL, 24 hours, compared to untreated cells. It counts as cell-based, human. Here is the method:
as §1, with “BEAS-2B” for “A549”, “further ELISA” for “further”, “analysis. On the day of the ELISA assays to determine the expression of each cytokine, cell culture supernatant was thawed, and the assays performed following the manufacturer's instructions.” for “analysis.”, “manufacturers'” for “manufacturer's”, “AIM2” for “NLRP3”, “standards.” for “standard.”

For the molecule `C1C[S][Bi]([S]CC[S][Bi]2[S]CC[S]2)[S]1` [BisEDT, 1,2-(Bis(1,3-dithia-2-bismolane)thio)ethane], the “NLRP3 expression (NLRP3/Actin copy number)” value in the assay on NLRP3 is “inhibits NLRP3 expression”. The “AIM2 gene expression relative to beta-actin” value is “even greater increase of expression” in the assay on AIM2 inflammasome [1] (M. abscessus infected THP-1 cells + 1 μg/ml BisEDT); “did not change the gene expression” with AIM2 inflammasome [1] (M. avium infected THP-1 cells + BisEDT (2, 4 μg/ml)); “The higher the dose, the more AIM2 gene expression was reduced; also recorded: inhibits AIM2 and NLRP3 inflammasome expression” in the assay with AIM2 inflammasome [1] (uninfected THP-1 macrophages, 0.5-4 μg/ml BisEDT, 48 hours). Moreover, the “AIM2 inflammasome expression (AIM2/Actin copy number)” value with AIM2 inflammasome [2] is “inhibit AIM2 inflammasome expression”. Moreover, the “expression of IL-18” value with HUVEC cells was “Consistent reduction”. In addition, the “expression of TNF-α” value in the assay on HUVEC cells and with BEAS-2B cells was “Consistent reduction” each time. Further, in the assay with BEAS-2B cells, the “expression of IL-1β” value is reported as “Consistent reduction”. Further, the “expression of IL-10” value in the assay on BEAS-2B cells is on record as “consistent increase”.
